Reference: patent publication US7423177B2, “Carboxamide derivatives as therapeutic agents” (TransTech Pharma, Inc., priority 2001, dated 2008)
Where a name gives a salt, the structure may show the parent alone.

How the values were obtained:
[1] = biological target: T1, RAGE (sRAGE) binding to Carboxymethyl Lysine (CML) (Homo sapiens, UniProt Q15109); assay: ELISA assay: inhibition of sRAGE binding to plate-bound CML; details: ligand CML coated on plate, concentration at which 50% signal has been inhibited
T1 construct: extracellular domain can be isolated by proteolysis of RAGE to generate soluble RAGE (sRAGE) comprised of the V and C domains
Description: (§1) This method is also described and claimed in co-pending U.S. Ser. No. 09/799,152 filed Mar. 5, 2001.
(§2) S100b, β-amyloid and CML (500 ng/100 μL/well) in 100 mM sodium bicarbonate/sodium carbonate buffer (pH 9.8) is loaded onto the wells of a NUNC Maxisorp flat bottom 96 -well microtitre plate. The plate is incubated at 4° C. overnight. The wells are aspirated and treated with 50 mM imidazole buffer saline (pH 7.2) (with 1 mM CaCl2/MgCl2) containing 1% bovine serum albumin (BSA) (300 μL/well) for two h at 37° C.
(§3) Test compounds are dissolved in nanopure water (concentration: 10-100 μM). DMSO may be used as co-solvent. 25 μL of test compound solution in 2% DMSO is added, along with 75 μL SRAGE (4.0×10^−4 mg/mL FAC) to each well and samples are incubated for 1 h at 37° C. The wells are washed 3 times with 155 mM NaCl pH 7.2 buffer saline and are soaked 10 seconds between each wash.
(§4) Non-Radioactive Binding is Performed by Adding:
(§5) 10 μL Biotinylated goat F(ab′)2 Anti-mouse IgG. (8.0×10^−4 mg/mL, FAC)
(§6) 10 μL Alk-phos-Sterptavidin (3×10^−3 mg/mL FAC)
(§7) 10 μL Polyclonal antibody for sRAGE (FAC 6.0×10^−3 mg/mL)
(§8) to 5 mL 50 mM imidazole buffer saline (pH 7.2) containing 0.2% bovine serum albumin and 1 mM […]. The mixture is incubated for 30 minutes at 37° C. 100 μL complex is added to each well and incubation is allowed to proceed at rt for 1 h. Wells are washed 3 times with wash buffer and soaked 10 s between each wash. 100 μL 1 mg/mL (pNPP) in 1 M diethanolamine (pH adjusted to 9.8 with HCl) is added. Color is allowed to develop in the dark for 1 to 2 h at rt. The reaction is quenched with 10 μL of stop solution (0.5 N NaOH in 50% ethanol) and the absorbance is measured spectrophotometrically with a microplate reader at 405 nm.

[2] = biological target: T2, RAGE (sRAGE) binding to β-amyloid (Homo sapiens, UniProt Q15109); assay: ELISA assay: inhibition of sRAGE binding to plate-bound β-amyloid; details: ligand β-amyloid coated on plate, concentration at which 50% signal has been inhibited
T2 construct: extracellular domain can be isolated by proteolysis of RAGE to generate soluble RAGE (sRAGE) comprised of the V and C domains
Description: as §1, §2, §3, §4, §5, §6, §7, §8

[3] = biological target: T3, RAGE (sRAGE) binding to S100b (Homo sapiens, UniProt Q15109); assay: ELISA assay: inhibition of sRAGE binding to plate-bound S100b; details: ligand S100b coated on plate, concentration at which 50% signal has been inhibited, read-out: ELISA Assay IC50 (μM) S-100b
T3 construct: extracellular domain can be isolated by proteolysis of RAGE to generate soluble RAGE (sRAGE) comprised of the V and C domains
Description: as §1, §2, §3, §4, §5, §6, §7, §8

T1 sequence (Q15109 23-342 limits assumed): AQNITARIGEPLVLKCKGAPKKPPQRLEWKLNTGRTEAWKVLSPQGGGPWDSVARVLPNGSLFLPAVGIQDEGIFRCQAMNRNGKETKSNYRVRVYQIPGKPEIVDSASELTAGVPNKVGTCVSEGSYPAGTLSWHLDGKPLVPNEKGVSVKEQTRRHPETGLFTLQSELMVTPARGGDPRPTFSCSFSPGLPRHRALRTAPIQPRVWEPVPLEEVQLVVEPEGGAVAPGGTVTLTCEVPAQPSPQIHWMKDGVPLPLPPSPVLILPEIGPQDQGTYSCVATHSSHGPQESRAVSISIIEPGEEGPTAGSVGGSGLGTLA
T3 sequence (Q15109 23-342 limits assumed): as above
T2 sequence (Q15109 23-342 limits assumed): as above

Compound	IC50 [1] [µM]	IC50 [2] [µM]	IC50 [3] [µM]
CCCCN(C(=O)[C@H](N)Cc1ccc(OCc2ccccc2)cc1)c1cccc(OCCCN(CC)CC)c1 [Example 21, (2R)-2-amino-3-[4-(benzyloxy)phenyl]propionic Acid 3-(3-diethylaminopropoxy)-N-butylaniline Amide]	1 to 5	1 to 5	1 to 5
CCN(CC)CCCOc1ccc(N(CC2CCCC2)C(=O)[C@H](N)Cc2ccc(OCc3ccccc3)cc2)cc1 [Example 17, (2R)-2-amino-3-[4-(benzyloxy)phenyl]propionic Acid 4-(3-diethylaminopropoxy)-N-cyclopentylmethylaniline Amide]	10 to 20	10 to 20	5 to 10
CCCCOc1cc(OCCCN(CC)CC)ccc1NC(=O)C(CC1CCN(C(=O)OC(C)(C)C)CC1)NC(=O)OCC1c2ccccc2-c2ccccc21 (stereo not drawn) [Example 22, 3-(1-Tert-butoxycarbonylpiperidin-4-yl)-2-(9-fluorenylmethoxycarbonylamino)propionic Acid 4-Diethylaminopropoxy-2-butoxyaniline Amide]	0.5 to 1	0.5 to 1	1 to 5
CCCCOc1cc(C(=O)OCCN(CC)CC)ccc1NC(=O)[C@@H]1Cc2ccccc2CN1 [Example 6, (3S)-1,2,3,4-Tetrahydroisoquinoline-3-carboxylic Acid 4-Diethylaminoethoxycarbonyl-2-butoxyaniline Amide Dihydrochloride]	5 to 10	10 to 20	10 to 20
CCN(CC)CCCOc1ccc(N(CC2CCCCC2)C(=O)[C@H](N)Cc2ccc(OCc3ccccc3)cc2)cc1 [Example 16, (2R)-2-amino-3-[4-(benzyloxy)phenyl]propionic Acid 4-(3-diethylaminopropoxy)-N-cyclohexylmethylaniline Amide]	1 to 5	1 to 5	1 to 5
CCCCOc1cc(OCCCN(CC)CC)ccc1NC(=O)C(CC1CCNCC1)NC(=O)OCC1c2ccccc2-c2ccccc21 (stereo not drawn) [Example 23, 3-(Piperidin-4-yl)-2-(9-fluorenylmethoxycarbonylamino)propionic Acid 4-Diethylaminopropoxy-2-butoxyaniline Amide]	1 to 5	0.5 to 1	0.5 to 1
CCCCOc1cc(OCCCN(CC)CC)ccc1NC(=O)C(N)CC1CCN(Cc2ccccc2)CC1 (stereo not drawn) [Example 25, 3-(1-Benzylpiperidin-4-yl)-2-aminopropionic Acid 4-Diethylaminopropoxy-2-butoxyaniline Amide]	10 to 20	10 to 20	5 to 10
CCCCN(C(=O)[C@H](N)Cc1ccc(OCc2ccccc2)cc1)c1ccc(OCCCN(CC)CC)cc1 [Example 19, (2R)-2-amino-3-[4-(benzyloxy)phenyl]propionic Acid 4-(3-diethylaminopropoxy)-N-butylaniline Amide]	1 to 5	1 to 5	1 to 5
CCCCOc1cc(OCCCN(CC)CC)ccc1NC(=O)C(CC1CCCN(C(=O)OC(C)(C)C)C1)NC(=O)OCC1c2ccccc2-c2ccccc21 (stereo not drawn) [Example 29, 3-(Tert-butoxycarbonylpiperidin-3-yl)-2-(9-fluorenylmethoxycarbonylamino)propionic Acid 4-Diethylaminopropoxy-2-butoxyaniline Amide]	1 to 5	1 to 5	1 to 5
CCN(CC)CCCOc1ccc(NC(=O)[C@@H]2C[C@@H](OC(C)(C)C)CN2)c(OCCCN(CC)CC)c1 [Example 5, (2S, 4R)-4-Tert-Butoxypyrrolidine-2-carboxylic acid 2,4-Di(3-diethylamino-1-propoxy)aniline Amide]	–	–	1 to 5
(2R)-2-tert-butoxycarbonylamino-3-[4-(benzyloxy)phenyl]propionic Acid 4-(3-diethylaminopropoxy)-N-isopropylaniline Amide [Example 15]	5 to 10	1 to 5	1 to 5
CCCCOc1cc(C(=O)OCCN(CC)CC)ccc1NC(=O)C(N)CC1CCOCC1 (stereo not drawn) [Example 4, 3-(4-Tetrahydropyranyl)-2-aminopropionic Acid 4-Diethylaminoethoxycarbonyl-2-butoxyaniline Amide Dihydrochloride]	–	–	10 to 20
CCN(CC)CCCOc1ccc(N(CC2CCCC2)C(=O)[C@@H](Cc2ccc(OCc3ccccc3)cc2)NC(=O)OC(C)(C)C)cc1 [Example 14, (2R)-2-tert-butoxycarbonylamino-3-[4-(benzyloxy)phenyl]propionic Acid 4-(3-diethylaminopropoxy)-N-cyclopentylmethylaniline Amide]	1 to 5	1 to 5	1 to 5
CCN(CC)CCCOc1ccc(NC(=O)CCc2ccc(OCc3ccccc3)cc2)c(OCCCN(CC)CC)c1 [Example 1, 3-(4-Benzyloxyphenyl)propionic Acid 2,4-Di-(3-Diethylamino-1-propoxy)aniline Amide]	–	–	1 to 5
CCCCOc1cc(OCCCN(CC)CC)ccc1NC(=O)C(CC1CCN(C(=O)c2ccccc2)CC1)NC(=O)OCC1c2ccccc2-c2ccccc21 (stereo not drawn) [Example 27, 3-(1 -Benzoylpiperidin-4-yl)-2-(9-fluorenylmethoxycarbonylamino)propionic Acid 4-Diethylaminopropoxy-2-butoxyaniline Amide]	1 to 5	1 to 5	1 to 5
CCCCOc1cc(OCCCN(CC)CC)ccc1NC(=O)C(CC1CCN(Cc2ccccc2)CC1)NC(=O)OCC1c2ccccc2-c2ccccc21 (stereo not drawn) [Example 24, 3-(1-Benzylpiperidin-4-yl)-2-(9-fluorenylmethoxycarbonylamino)propionic Acid 4-Diethylaminopropoxy-2-butoxyaniline Amide]	< 0.5	0.5 to 1	0.5 to 1
CCCCOc1cc(OCCCN(CC)CC)ccc1NC(=O)C(CC1CCCNC1)NC(=O)OCC1c2ccccc2-c2ccccc21 (stereo not drawn) [Example 30, 3-(Piperidin-3-yl)-2-(9-fluorenylmethoxycarbonylamino)propionic Acid 4-Diethylaminopropoxy-2-butoxyaniline Amide]	0.5 to 1	0.5 to 1	0.5 to 1
CCN(CC)CCCOc1ccc(NC(=O)CC(NC(=O)OCC2c3ccccc3-c3ccccc32)c2ccccc2OC(C)(C)C)c(OCCCN(CC)CC)c1 (stereo not drawn) [Example 10, 3-(9-fluorenylmethoxycarbonylamino)-3-(2-tert-butoxyphenyl)propionic Acid 2,4-Di-(3-diethylaminopropoxy)aniline Amide]	1 to 5	1 to 5	0.5 to 1
CCN(CC)CCCOc1ccc(NC(=O)CC(NC(=O)OCC2c3ccccc3-c3ccccc32)c2ccc(OC(C)(C)C)cc2)c(OCCCN(CC)CC)c1 (stereo not drawn) [Example 8, 3-(4-Tert-butoxyphenyl)-3-(9-fluorenylmethoxycarbonylamino)propionic Acid 2,4-Di-(3-diethylaminopropoxy)aniline Amide]	0.5 to 1	0.5 to 1	0.5 to 1
CCCCN(C(=O)[C@@H](Cc1ccc(OCc2ccccc2)cc1)NC(=O)OC(C)(C)C)c1cccc(OCCCN(CC)CC)c1 [Example 20, (2R)-2-tert-butoxycarbonylamino-3-[4-(benzyloxy)phenyl]propionic Acid 3-(3-diethylaminopropoxy)-N-butylaniline Amide]	1 to 5	1 to 5	1 to 5
CCCCOc1cc(OCCCN(CC)CC)ccc1NC(=O)C(CC1CCN(C(=O)c2ccccc2)CC1)NC(=O)c1ccccc1 (stereo not drawn) [Example 28, 3-(1-Benzoylpiperidin-4-yl)-2-benzoylaminopropionic Acid 4-Diethylaminopropoxy-2-butoxyaniline Amide]	1 to 5	5 to 10	5 to 10
CCN(CC)CCCOc1ccc(NC(=O)CC(N)c2ccc(OC(C)(C)C)cc2)c(OCCCN(CC)CC)c1 (stereo not drawn) [Example 9, 3-amino-3-(4-tert-butoxyphenyl)propionic Acid 2,4-Di-(3-diethylaminopropoxy)anline Amide]	1 to 5	1 to 5	1 to 5
CCN(CC)CCCOc1ccc(NC(=O)CC(NC(=O)OCC2c3ccccc3-c3ccccc32)c2cccc(OC(C)(C)C)c2)c(OCCCN(CC)CC)c1 (stereo not drawn) [Example 2, 3-(3-Tert-butoxyphenyl)-3-(9-fluorenylmethoxycarbonylamino)propionic Acid 2,4-Di-(3-diethylaminopropoxy)aniline Amide]	0.5 to 1	1 to 5	< 0.5
